Legend:
Format in all cases: in vivo
“Momotaro” tomato [1] = assay: Example 3 drying stress tolerance imparting test (tomato); settings: 3 weeks
Method: Other cultivation conditions were as with the conditions of the drying stress test. Drying stress conditions: soil pF value: 2.3, 2.5, or 2.9, cultivation temperature: 23° C., relative humidity: 50%, illuminance: 5000 Lux (fluorescent light), light/dark cycle: 16 hours/8 hours (2) Cultivation period: 3 weeks (3) Soil: Kureha gardening soil manufactured by Kureha Corporation (fertilizer components: N:P:K=0.4:1.9:0.6 g/kg soil) (4) Plant preparation: A 50-cell tray was filled with Kureha gardening soil manufactured by Kureha Corporation (fertilizer components: N:P:K=0.4:1.9:0.6 g/kg soil), and seeds of a “Momotaro” tomato were sowed, thinly covered with Kureha gardening soil, and sufficiently watered to allow the seeds to sprout. When the leaves in the 2-leaf stage fully unfolded, the soil on the tomato roots was carefully washed away with running water, and a test was performed. (5) The chemicals used and the amount of a treatment solution applied were as in Example 1. (6) Amount of treatment solution applied: 10 ml/specimen for leaf spraying, 50 ml/specimen for fertigation Method of Drying Stress Tolerance Imparting Test Five tomato specimens as prepared above were planted in a 60-cm planter placed on a plant culture rack in an air-conditioned room. […] From immediately after planting the tomatoes, a treatment solution of Table 1 was sprayed onto the leaves or applied to the underground portions once a week. […] Five specimens (per planter) were prepared for each of the test plot and the control plots, plant bodies were collected 3 weeks after the beginning of the test such that the roots were not cut, the soil was washed away with running water, the fresh plant body-weights were measured, and a plant stress level and an extent of imparting plant stress tolerance were calculated according to Formula (ii) and (iii) above using the average of the weights.

tomato = assay: Example 8 temperature stress test (tomato), soil culture; settings: 100 ppm, 2 weeks; for Fresh weight, relative value (untreated plot = 100), Comparison 1: stress-free: tomato soil culture, cultivation temperature 23, EC 1, pF 1.7, two-leaf stage; for Fresh weight, relative value (untreated plot = 100), Test 1 / Fresh weight, relative value (untreated plot = 100), Test 2 / Fresh weight, relative value (untreated plot = 100), Test 3 / Fresh weight, relative value (untreated plot = 100), Test 4: tomato soil culture; for Fresh weight, relative value (untreated plot = 100), Test 1: cultivation temperature 10, EC 1, pF 1.7, two-leaf stage; for Fresh weight, relative value (untreated plot = 100), Test 2: cultivation temperature 16, EC 1, pF 1.7, two-leaf stage; for Fresh weight, relative value (untreated plot = 100), Test 3: cultivation temperature 29, EC 1, pF 1.7, two-leaf stage; for Fresh weight, relative value (untreated plot = 100), Test 4: cultivation temperature 35, EC 1, pF 1.7, two-leaf stage
Method: Other Conditions were as in Example 5. The environmental conditions in a climatic chamber were controlled so as to have an illuminance by a fluorescent light of 5000 Lux, a daily light-dark cycle of a 16-hour light period and an 8-hour dark period, and various temperatures. Tomatoes as prepared above were transplanted in size-3 (9 cm) pots. A treatment solution containing a compound of Table 1 in a specific concentration (the remainder was water) was prepared and sprayed onto the leaves or applied to the underground portions. […] A comparative example was constructed to reflect the temperature stress-free optimum cultivation conditions to investigate the plant energizing ability. […] Moreover, when the products of the present invention and the comparative products were compared, the stress tolerance imparting ability of the products of the present invention was higher in respective temperature stress conditions.

potato = assay: Example 9 drying stress test (potato), soil culture; settings: 23° C., 100 ppm, 2 weeks; for Fresh weight, relative value (untreated plot = 100), Test 1 / Fresh weight, relative value (untreated plot = 100), Test 4 / Fresh weight, relative value (untreated plot = 100), Test 2 / Fresh weight, relative value (untreated plot = 100), Test 3: potato soil culture; for Fresh weight, relative value (untreated plot = 100), Test 1: EC 1, pF 2.8, two-leaf stage; for Fresh weight, relative value (untreated plot = 100), Test 4: EC 1, pF 3.5, five-leaf stage; for Fresh weight, relative value (untreated plot = 100), Test 2: EC 1, pF 3.5, two-leaf stage; for Fresh weight, relative value (untreated plot = 100), Test 3: EC 1, pF 4.1, two-leaf stage; for Fresh weight, relative value (untreated plot = 100), Comparison 1: stress-free: potato soil culture, EC 1, pF 1.7, two-leaf stage
Method: The environmental conditions in a climatic chamber were controlled so as to have a temperature of 23° C., an illuminance by a fluorescent light of 5000 Lux, and a daily light-dark cycle of a 16-hour light period and an 8-hour dark period. Potatoes as prepared above were transplanted in size-5 (15 cm) pots. During the test period, the pF value was controlled by adding a suitable amount of tap water once a day so as to attain a specific drying stress value. A treatment solution containing a compound of Table 5 in a specific concentration (the remainder was water) was prepared and sprayed onto the leaves or applied to the underground portions. […] A comparative example was constructed to reflect the drying stress-free optimum cultivation conditions to investigate the plant energizing ability. […] Moreover, when the products of the present invention and the comparative products were compared, the stress tolerance imparting ability of the products of the present invention was higher in respective drying stress conditions.

“Momotaro” tomato [2] = assay: Example 1 salt stress tolerance imparting test (tomato, hydroponic, Otsuka 1/2A + NaCl); settings: 2 weeks
Method: (1) Salt stress-free test conditions: NaCl concentration (water potential by Nan): 0 ppm (0 MPa). Other cultivation conditions were as the same as the conditions of the drying stress test.
When the leaves in the 2-leaf stage fully unfolded, the soil on the tomato roots was carefully washed away with running water, and a test was performed.
Method of Salt Stress Tolerance Imparting Test
The environmental conditions in a climatic chamber were controlled so as to have a temperature of 23° C., an illuminance by a fluorescent light of 5000 Lux, and a daily light-dark cycle of a 16-hour light period and an 8-hour dark period. […] A treatment solution containing a compound of Table 1 in a specific concentration (the remainder was water) was prepared and sprayed onto the leaves or applied to the underground portion. In addition, a control plot to which no NaCl was added, not imposing a salt stress (this is a control plot for plant body weight 2 for Formula (ii) and is a stress-free control plot) and a control plot to which NaCl was added in various concentrations, imposing a salt stress, and to which the treatment solution was not applied (this is a control plot for plant body weight 1 for Formula (ii) and is a control plot including a salt stress) were prepared as controls. Ten specimens were prepared for each of the test plot and the control plots, and a plant stress level and an extent of imparting plant stress tolerance were calculated according to Formulas (II) above using as a fresh plant body weight the average of the fresh plant body weights of each specimen 2 weeks after the beginning of the test.

[3] = pF 2.3, leaf, 100 ppm once a week
[4] = pF 2.3, leaf, 200 ppm once a week

Alkyl (C10) polyglycoside [Product of present invention 15]
Extent of imparting plant stress tolerance (“Momotaro” tomato [1]; [3]): 117% | Extent of imparting plant stress tolerance (“Momotaro” tomato [1]; [4]): 115% | Fresh weight, relative value (untreated plot = 100), Comparison 1 (tomato; leaf): 102 | Fresh weight, relative value (untreated plot = 100), Test 1 (tomato; leaf): 116 | Fresh weight, relative value (untreated plot = 100), Test 2 (tomato; leaf): 119 | Fresh weight, relative value (untreated plot = 100), Test 3 (tomato; leaf): 136 | Fresh weight, relative value (untreated plot = 100), Test 4 (tomato; leaf): 126 | Fresh weight, relative value (untreated plot = 100), Test 1 (potato; leaf): 121 | Fresh weight, relative value (untreated plot = 100), Test 4 (potato; leaf): 134 | Fresh weight, relative value (untreated plot = 100), Test 2 (potato; leaf): 142 | Fresh weight, relative value (untreated plot = 100), Test 3 (potato; leaf): 121 | Fresh weight, relative value (untreated plot = 100), Comparison 1 (potato; leaf): 102 | Extent of imparting plant stress tolerance (“Momotaro” tomato [2]; NaCl 3510 ppm, leaf, 100 ppm): 115% | Extent of imparting plant stress tolerance (“Momotaro” tomato [2]; NaCl 3510 ppm, leaf, 200 ppm): 114%

POE (20) sorbitan monolauric acid ester [Product of present invention 12]
Extent of imparting plant stress tolerance (“Momotaro” tomato [1]; [3]): 115% | Extent of imparting plant stress tolerance (“Momotaro” tomato [1]; [4]): 118% | Fresh weight, relative value (untreated plot = 100), Comparison 1 (tomato; leaf): 102 | Fresh weight, relative value (untreated plot = 100), Test 1 (tomato; leaf): 124 | Fresh weight, relative value (untreated plot = 100), Test 2 (tomato; leaf): 126 | Fresh weight, relative value (untreated plot = 100), Test 3 (tomato; leaf): 144 | Fresh weight, relative value (untreated plot = 100), Test 4 (tomato; leaf): 132 | Fresh weight, relative value (untreated plot = 100), Test 1 (potato; leaf): 128 | Fresh weight, relative value (untreated plot = 100), Test 4 (potato; leaf): 145 | Fresh weight, relative value (untreated plot = 100), Test 2 (potato; leaf): 143 | Fresh weight, relative value (untreated plot = 100), Test 3 (potato; leaf): 129 | Fresh weight, relative value (untreated plot = 100), Comparison 1 (potato; leaf): 101 | Extent of imparting plant stress tolerance (“Momotaro” tomato [2]; NaCl 3510 ppm, leaf, 100 ppm): 116% | Extent of imparting plant stress tolerance (“Momotaro” tomato [2]; NaCl 3510 ppm, leaf, 200 ppm): 120%

POE (20) sorbitan monooleic acid ester [Product of present invention 1]
Extent of imparting plant stress tolerance (“Momotaro” tomato [1]; pF 2.3, leaf, 1 ppm once a week): 112% | Extent of imparting plant stress tolerance (“Momotaro” tomato [1]; pF 2.3, leaf, 10 ppm once a week): 113% | Extent of imparting plant stress tolerance (“Momotaro” tomato [1]; [3]): 113% | Extent of imparting plant stress tolerance (“Momotaro” tomato [1]; pF 2.3, leaf, 1000 ppm once a week): 117% | Extent of imparting plant stress tolerance (“Momotaro” tomato [1]; pF 2.3, underground portion, 100 ppm once a week): 129% | Extent of imparting plant stress tolerance (“Momotaro” tomato [1]; pF 2.5, leaf, 100 ppm once a week): 117% | Extent of imparting plant stress tolerance (“Momotaro” tomato [1]; pF 2.5, underground portion, 100 ppm once a week): 128% | Extent of imparting plant stress tolerance (“Momotaro” tomato [1]; pF 2.9, leaf, 100 ppm once a week): 124% | Extent of imparting plant stress tolerance (“Momotaro” tomato [1]; pF 2.9, underground portion, 100 ppm once a week): 135% | Fresh weight, relative value (untreated plot = 100), Comparison 1 (tomato; underground portion): 103 | Fresh weight, relative value (untreated plot = 100), Test 1 (tomato; underground portion): 128 | Fresh weight, relative value (untreated plot = 100), Test 2 (tomato; underground portion): 131 | Fresh weight, relative value (untreated plot = 100), Test 3 (tomato; underground portion): 158 | Fresh weight, relative value (untreated plot = 100), Test 4 (tomato; underground portion): 138 | Fresh weight, relative value (untreated plot = 100), Test 1 (potato; underground portion): 133 | Fresh weight, relative value (untreated plot = 100), Test 4 (potato; underground portion): 156 | Fresh weight, relative value (untreated plot = 100), Test 2 (potato; underground portion): 185 | Fresh weight, relative value (untreated plot = 100), Test 3 (potato; underground portion): 140 | Fresh weight, relative value (untreated plot = 100), Comparison 1 (potato; underground portion): 102 | Extent of imparting plant stress tolerance (“Momotaro” tomato [2]; NaCl 1500 ppm, leaf, 100 ppm): 113% | Extent of imparting plant stress tolerance (“Momotaro” tomato [2]; NaCl 1500 ppm, underground portion, 100 ppm): 124% | Extent of imparting plant stress tolerance (“Momotaro” tomato [2]; NaCl 3510 ppm, leaf, 1 ppm): 111% | Extent of imparting plant stress tolerance (“Momotaro” tomato [2]; NaCl 3510 ppm, leaf, 10 ppm): 112% | Extent of imparting plant stress tolerance (“Momotaro” tomato [2]; NaCl 3510 ppm, leaf, 100 ppm): 113% | Extent of imparting plant stress tolerance (“Momotaro” tomato [2]; NaCl 3510 ppm, leaf, 1000 ppm): 118% | Extent of imparting plant stress tolerance (“Momotaro” tomato [2]; NaCl 3510 ppm, underground portion, 100 ppm): 130% | Extent of imparting plant stress tolerance (“Momotaro” tomato [2]; NaCl 5000 ppm, leaf, 100 ppm): 125% | Extent of imparting plant stress tolerance (“Momotaro” tomato [2]; NaCl 5000 ppm, underground portion, 100 ppm): 135%

Sucrose fatty acid ester (C18, HLB = 15) [Product of present invention 20]
Extent of imparting plant stress tolerance (“Momotaro” tomato [1]; [3]): 117% | Fresh weight, relative value (untreated plot = 100), Comparison 1 (tomato; leaf): 102 | Fresh weight, relative value (untreated plot = 100), Test 1 (tomato; leaf): 114 | Fresh weight, relative value (untreated plot = 100), Test 2 (tomato; leaf): 116 | Fresh weight, relative value (untreated plot = 100), Test 3 (tomato; leaf): 133 | Fresh weight, relative value (untreated plot = 100), Test 4 (tomato; leaf): 122 | Fresh weight, relative value (untreated plot = 100), Test 1 (potato; leaf): 118 | Fresh weight, relative value (untreated plot = 100), Test 4 (potato; leaf): 128 | Fresh weight, relative value (untreated plot = 100), Test 2 (potato; leaf): 135 | Fresh weight, relative value (untreated plot = 100), Test 3 (potato; leaf): 118 | Fresh weight, relative value (untreated plot = 100), Comparison 1 (potato; leaf): 102 | Extent of imparting plant stress tolerance (“Momotaro” tomato [2]; NaCl 3510 ppm, leaf, 100 ppm): 113%

Source: patent US20110100079A1, “METHOD FOR IMPARTING STRESS TOLERANCE TO PLANT” (priority 2007, published 2011)
